Measurements reported in patent US7763656B2, “Use of Acetylamino benzoic acid compounds for nonsense suppression and the treatment of disease” (PTC Therapeutics, Inc., priority 2002, dated 2010).
Where “and” joins values, the source holds several entries; their conditions need not be identical. Equal values may be shown once.

melting point | SMILES
168 to 170 °C | CC(C)c1ccccc1OCC(=O)Nc1cccc(C(=O)O)c1 [Compound 43, 3-[2-(2-Isopropyl-phenoxy)-acetylamino]-benzoic acid]
199 to 201 °C | O=C(COc1ccc2c(c1)CCCC2)Nc1cccc(C(=O)O)c1 [Compound 20, 3-[2-(5,6,7,8-tetrahydro-naphthalen-2-yloxy)-acetylamino]-benzoic acid]
174 to 176 °C and 174 to 175 °C | Cc1cc(OCC(=S)Nc2cccc(C(=O)O)c2)ccc1C(C)C [Compound 8, 3-[2-(4-isopropyl-3-methyl-phenoxy)-thioacetylamino]-benzoic acid]
225 to 226 °C | Cc1cccc(-c2ccc(OCC(=O)Nc3cccc(C(=O)O)c3)cc2)c1 [Compound 10, 3-[2-(3’-methyl-biphen-4-yloxy)-acetylamino]-benzoic acid]
191 to 192 °C | CCOc1ccc(OCC(=O)Nc2cccc(C(=O)O)c2)cc1 [Compound 27, 3-[2-(4-ethoxy-phenoxy)-acetylamino]-benzoic acid]
201 to 205 °C | Cc1ccc(OC2CCN(c3cccc(C(=O)O)c3)C2=O)cc1C (stereo not shown) [Compound 89, 3-[3-(3,4-Dimethyl-phenoxy)-2-oxo-pyrrolidin-1-yl]-benzoic acid]
219 to 221 °C | O=C(COc1ccc(Cl)c(Cl)c1)Nc1cccc(C(=O)O)c1 [Compound 12, 3-[2-(3,4-dichlorophenoxy)-acetylamino]-benzoic acid]
201 to 202 °C | Cc1ccc(OCC(=O)Nc2cccc(C(=O)O)c2)cc1C [Compound 1, 3-[2-(3,4-dimethyl-phenoxy)-acetylamino]-benzoic acid]
260 to 261 °C | O=C(COc1ccc(C(=O)O)cc1)Nc1cccc(C(=O)O)c1 [Compound 50, 3-[2-(4-Carboxy-phenoxy)-acetylamino]-benzoic acid]
183 to 184 °C | Cc1cc(OCC(=O)Nc2cccc(C(=O)O)c2)cc(C(C)C)c1 [Compound 5, 3-[2-(3-isopropyl-5-methyl-phenoxy)-acetylamino]-benzoic acid]
200 to 208 °C | Cc1cc(OCC(=O)Nc2cc(F)c(F)c(C(=O)O)c2F)ccc1C(C)C [Compound 58, 2,3,6-Trifluoro-5-[2-(4-isopropyl-3-methyl-phenoxy)-acetylamino]-benzoic acid]
101 to 103 °C | Cc1cc(OCC(=O)Nc2ccc(O)c(C(=O)O)c2)ccc1C(C)C [Compound 56, 2-Hydroxy-5-[2-(4-isopropyl-3-methyl-phenoxy)-acetylamino] benzoic acid]
202 to 203 °C | CCOC(=O)/C=C/c1ccc(OCC(=O)Nc2cccc(C(=O)O)c2)cc1 [Compound 60, 3-{2-[4-(2-Ethoxycarbonyl-vinyl)-phenoxy]-acetylamino}-benzoic acid]
253 to 255 °C | COc1ccc(C(=O)O)cc1NC(=O)COc1cc(C)ccc1C(C)C [Compound 44, 3-[2-(2-Isopropyl-5-methyl-phenoxy)-acetylamino]-4-methoxy-benzoic acid]
164 to 165 °C | CCC(C)(C)c1ccc(OCC(=O)Nc2cccc(C(=O)O)c2)cc1 [Compound 15, 3-{2-[4-(1,1-dimethyl-propyl)-phenoxy]acetylamino)-benzoic acid]
148 to 171 °C | Cc1cc(OCC(=O)Nc2cccc(C(=O)O)c2C)ccc1C(C)C [Compound 59, 3-[2-(4-Isopropyl-3-methyl-phenoxy)-acetylamino]-2-methyl-benzoic acid]
174 to 175 °C | Cc1cc(OCC(=O)Nc2cc(C(=O)O)ccc2Cl)ccc1C(C)C [Example 4, 4-CHLORO-3-[2-(4-ISOPROPYL-3-METHYL-PHENOXY)-ACETYLAMINO]-BENZOIC ACID]
211 to 213 °C | Cc1ccc(C(C)C)cc1OCC(=O)Nc1cccc(C(=O)O)c1 [Compound 45, 3-[2-(5-Isopropyl-2-methyl-phenoxy)-acetylamino]-benzoic acid]

Further lines, the compound ahead of its results:

SMILES | melting point
O=C(O)c1cccc(N2CCC(Oc3ccc(Oc4ccccc4)cc3)C2=O)c1 (stereo not shown) [Compound 39, 3-[2-Oxo-3-(4-phenoxy-phenoxy)-pyrrolidin-1-yl]-benzoic acid] | 185 to 187 °C
O=C(COc1ccc(C(=O)c2ccccc2)cc1)Nc1cccc(C(=O)O)c1 [Compound 32, 3-[2-(4-benzoyl-phenoxy)-acetylamino]-benzoic acid] | 208 to 210 °C
O=C(O)c1cccc(N2CCC(Oc3ccc4c(c3)OCO4)C2=O)c1 (stereo not shown) [Compound 36, 3-[3-(Benzo[1,3]dioxol-5-yloxy)-2-oxo-pyrrolidin-1-yl]-benzoic acid] | 194 to 197 °C
CCc1ccc(OC2CCN(c3cccc(C(=O)O)c3)C2=O)cc1 (stereo not shown) [Compound 83, 3-[3-(4-Ethyl-phenoxy)-2-oxo-pyrrolidin-1-yl]-benzoic acid] | 194 to 195 °C
CCc1cccc(OC2CCN(c3cccc(C(=O)O)c3)C2=O)c1 (stereo not shown) [Compound 38] | 150 to 152 °C
O=C(O)c1cccc(N2CCC(Oc3ccc4c(c3)CCC4)C2=O)c1 (stereo not shown) [Compound 35, 3-[3-(Indan-5-yloxy)-2-oxo-pyrrolidin-1-yl]-benzoic acid] | 182 to 184 °C
O=C(COc1cccc(Nc2ccccc2)c1)Nc1cccc(C(=O)O)c1 [Compound 66, 3-[2-(3-Phenylamino-phenoxy)-acetylamino]-benzoic acid] | 189 to 191 °C
O=C(COc1ccc(CN2C(=O)c3ccccc3C2=O)cc1)Nc1cccc(C(=O)O)c1 [Compound 72] | 238 to 240 °C
O=C(COc1ccc(C2CCCC2)cc1)Nc1cccc(C(=O)O)c1 [Compound 24, 3-[2-(4-cyclopentyl-phenoxy)-acetylamino]-benzoic acid] | 212 to 213 °C
O=C(O)c1cccc(N2CCC(Oc3ccc(Br)cc3)C2=O)c1 (stereo not shown) [Compound 76, 3-[3-(4-Bromo-phenoxy)-2-oxo-pyrrolidin-1-yl]-benzoic acid] | 196 to 197 °C
Cc1cc(OC2CCN(c3cccc(C(=O)O)c3)C2=O)cc(C(C)C)c1 (stereo not shown) [Compound 87, 3-[3-(3-Isopropyl-5-methyl-phenoxy)-2-oxo-pyrrolidin-1-yl]-benzoic acid] | 134 to 138 °C
O=C(O)c1cccc(N2CCC(Oc3ccc(Cl)cc3)C2=O)c1 (stereo not shown) [Compound 75, 3-[3-(4-Chloro-phenoxy)-2-oxo-pyrrolidin-1-yl]-benzoic acid] | 192 to 193 °C
CC(C)c1ccc(OC2CCN(c3cccc(C(=O)O)c3)C2=O)cc1 (stereo not shown) [Compound 33, 3-[3-(4-Isopropyl-phenoxy)-2-oxo-pyrrolidin-1-yl]-benzoic acid] | 210 to 211 °C
O=C(COc1ccc(Oc2ccc(C(F)(F)F)cc2)cc1)Nc1cccc(C(=O)O)c1 [Compound 68, 3-{2-[4-(4-Trifluoromethyl-phenoxy)-phenoxy]-acetylamino}-benzoic acid] | 189 to 190 °C
O=C(COc1ccc(OCc2ccccc2)cc1)Nc1cccc(C(=O)O)c1 [Compound 61, 3-[2-(4-Benzyloxy-phenoxy)-acetylamino]-benzoic acid] | 208 to 210 °C
CC(C)(c1ccccc1)c1ccc(OCC(=O)Nc2cccc(C(=O)O)c2)cc1 [Compound 22, 3-{2-[4-(1-methyl-1-phenyl-ethyl)-phenoxy]-acetylamino}-benzoic acid] | 207 to 208 °C
